# Test results as given in ChEMBL document CHEMBL1135948, “A solid-phase approach towards the synthesis of PDE5 inhibitors” (Bioorg Med Chem Lett, 2002).
# Biological target: cGMP-specific 3',5'-cyclic phosphodiesterase (Homo sapiens) (UniProt O76074)
# Assay: Percentage inhibition against phosphodiesterase 5 (PDE5) was determined using [3H]cGMP scintillation proximity assay at concentration of 1 uM
row,Compound,inhibition [%]
1,CCCn1c(=O)c2[nH]c(Cc3ccc(Br)cc3)nc2n(CC(C)C)c1=O,57
2,CC(C)Cn1c(=O)n(-c2cncn2C)c(=O)c2[nH]c(Cc3ccc(Br)cc3)nc21,59
3,CC(C)Cn1c(=O)n(CCC2CCCCC2)c(=O)c2[nH]c(Cc3ccc(Br)cc3)nc21,42
4,CCOc1ccccc1-n1c(=O)c2[nH]c(Cc3ccc(Br)cc3)nc2n(CC(C)C)c1=O,38
5,CC(C)Cn1c(=O)[nH]c(=O)c2[nH]c(Cc3ccc(Br)cc3)nc21,42
6,C#Cn1c(=O)c2[nH]c(Cc3ccc(Br)cc3)nc2n(CC(C)C)c1=O,68
7,CC(C)Cn1c(=O)n(C2CCC2)c(=O)c2[nH]c(Cc3ccc(Br)cc3)nc21,4
8,CC(C)Cn1c(=O)n(-c2ccncc2)c(=O)c2[nH]c(Cc3ccc(Br)cc3)nc21,22
9,CC(C)Cn1c(=O)n(CC(C)(C)C)c(=O)c2[nH]c(Cc3ccc(Br)cc3)nc21,35
10,CC(C)Cn1c(=O)n(-c2ccccn2)c(=O)c2[nH]c(Cc3ccc(Br)cc3)nc21,20
11,CC(C)Cn1c(=O)n(CSc2ccccc2)c(=O)c2[nH]c(Cc3ccc(Br)cc3)nc21,15
12,CC(C)Cn1c(=O)n(COc2ccccc2)c(=O)c2[nH]c(Cc3ccc(Br)cc3)nc21,33
13,CCn1c(=O)c2[nH]c(Cc3ccc(Br)cc3)nc2n(CC(C)C)c1=O,93
14,CC(C)Cn1c(=O)n(Cc2cccc3c2OCO3)c(=O)c2[nH]c(Cc3ccc(Br)cc3)nc21,13
15,CC(C)Cn1c(=O)n(CN)c(=O)c2[nH]c(Cc3ccc(Br)cc3)nc21,38
16,CC(C)Cn1c(=O)n(CN(C(C)C)C(C)C)c(=O)c2[nH]c(Cc3ccc(Br)cc3)nc21,41
17,CC(C)Cn1c(=O)n(CO)c(=O)c2[nH]c(Cc3ccc(Br)cc3)nc21,88
18,CC(C)Cn1c(=O)n(C)c(=O)c2[nH]c(Cc3ccc(Br)cc3)nc21,93
